This assay concerns the target Proto-oncogene tyrosine-protein kinase Src (Homo sapiens) (UniProt P12931). As to the kind of experiment: Inhibition of recombinant full length human SRCN1 expressed in baculovirus expression system using tyrosine-2 peptide as substrate incubated for 60 mins in presence of ATP by Z'-LYTE assay.

Chain of Proto-oncogene tyrosine-protein kinase Src (Homo sapiens) (P12931 whole entry, looked up): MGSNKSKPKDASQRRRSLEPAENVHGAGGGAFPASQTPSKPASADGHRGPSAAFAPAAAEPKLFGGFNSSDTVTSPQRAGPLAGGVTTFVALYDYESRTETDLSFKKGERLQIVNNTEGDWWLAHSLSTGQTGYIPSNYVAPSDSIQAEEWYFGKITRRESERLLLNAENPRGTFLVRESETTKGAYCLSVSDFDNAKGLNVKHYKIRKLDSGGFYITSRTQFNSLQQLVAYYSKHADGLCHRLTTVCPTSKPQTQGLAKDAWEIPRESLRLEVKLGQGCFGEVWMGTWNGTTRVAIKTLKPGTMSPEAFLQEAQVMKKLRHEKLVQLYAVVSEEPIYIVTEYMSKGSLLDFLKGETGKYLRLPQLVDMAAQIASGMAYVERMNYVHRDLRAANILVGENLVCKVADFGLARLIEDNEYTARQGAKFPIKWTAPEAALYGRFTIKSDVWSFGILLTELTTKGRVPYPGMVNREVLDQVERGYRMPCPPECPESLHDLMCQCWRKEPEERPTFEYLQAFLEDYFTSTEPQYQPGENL

As a reminder, the IC50 is the concentration that gives 50% inhibition. With `C[C@@H]1C[C@H]1C(=O)N1CCN(c2cnc(C#N)c(-c3cnn(C)c3)n2)C[C@H]1C`, the half-inhibitory concentration (IC50) is greater than 100 µM.
